# Data reported in patent US20220184071A1, “GEPOTIDACIN FOR USE IN THE TREATMENT OF BACTERIAL URINARY TRACT INFECTIONS” (GlaxoSmithKline Intellectual Property Development Limited, priority 2019, published 2022).
# Like-named read-outs stand apart in the source and are kept apart here.
# Key:
# [1] = MIC, conclusion to Example 1 Methods 1 and 2; assay type: cell-based; settings: at least one strain of every organism listed
# Method: (§1) Antimicrobial activity was determined by broth microdilution using the CLSI recommended procedure.
# Antimicrobial activity was determined in a second study by […] using the CLSI recommended procedure in serial two-fold dilutions and the minimum inhibitory concentration (MIC) was determined as the lowest concentration of the compound that inhibited visible growth.
# [2] = system: Staphylococcus saprophyticus; assay: MIC by CLSI broth microdilution in CAMHB and urine, Example 1 Method 3; assay type: cell-based; settings: for Mean MIC: n = 6; for MIC: Staphylococcus saprophyticus
# Method: as §1
# The compounds were tested in serial two-fold dilutions and the minimum inhibitory concentration (MIC) was determined as the lowest concentration of the compound that inhibited visible growth.
# In particular, gepotidacin was tested against 6 strains of Staphylococcus saprophyticus from the collection of isolates at Laboratory Specialists, Inc., Westlake, Ohio.
# Levofloxacin was included as the comparator in the study to determine the effect of urine on the in vitro activity of gepotidacin against Staphylococcus saprophyticus. MICs were determined by broth microdilution according CLSI methods.
# The data shown in the table below are results from an in vitro study conducted with the same S. saprophyticus isolates described above, to determine the effect of urine on the in vitro activity of gepotidacin and levofloxacin against S. saprophyticus. Study strains were tested for MICs (minimum inhibitory concentrations) according to reference CLSI broth microdilution method using cation-adjusted Mueller Hinton Broth (CAMHB) and with the addition of 25%, 50% and 100% urine (not pH adjusted, pH 6.42) and 100% urine (pH adjusted, 7.31 and 8.07).
# E. coli = assay: MIC of the isolates used in the murine models; assay type: cell-based, Escherichia coli
# Bacteroides spp. = assay: MIC by CLSI agar dilution, Example 6 Method 1; assay type: cell-based; settings: for Gepotidacin MIC range: agar dilution
# Method: (§2) Antimicrobial activity was determined by agar dilution using the Clinical and Laboratory Standards Institute (CLSI) recommended procedure.
# (§3) The compounds were tested in serial two-fold dilutions and the minimum inhibitory concentration (MIC) was determined as the lowest concentration of the compound that inhibited visible growth. Gepotidacin was tested against 333 gram-negative anaerobic and 203 gram-positive anaerobic isolates collected from clinical samples in North America and Europe from 2000 to 2017; the majority collected from 2013 to 2016.
# (§4) Ceftriaxone, clindamycin, imipenem, metronidazole, moxifloxacin and piperacillin/tazobactam were included as comparators.
# (§5) Additional analysis was performed from the results of the study described in Method 1 above, to determine the in vitro activity of gepotidacin against gram-negative and gram-positive anaerobic organisms with resistance to ceftriaxone, clindamycin, imipenem, metronidazole, moxifloxacin and piperacillin/tazobactam.
# Bifidobacterium spp. = assay: MIC by CLSI agar dilution, Example 6 Method 1; assay type: cell-based
# Method: as §2, §3, §4, §5
# Clostridium difficile = assay: MIC by CLSI agar dilution, Example 6 Method 1; assay type: cell-based
# Method: as §2, §3, §4, §5
# Eggerthella lenta = assay: MIC by CLSI agar dilution, Example 6 Method 1; assay type: cell-based
# Method: as §2, §3, §4, §5
# Lactobacillus spp. = assay: MIC by CLSI agar dilution, Example 6 Method 1; assay type: cell-based
# Method: as §2, §3, §4, §5
# [3] = system: Peptostreptococcus anaerobius; assay: MIC by CLSI agar dilution, Example 6 Method 1; assay type: cell-based; settings: for Gepotidacin MIC range: 3 isolates
# Method: as §2, §3, §4, §5
# Porphyromonas spp. = assay: MIC by CLSI agar dilution, Example 6 Method 1; assay type: cell-based; settings: 26 isolates, read-out: Gepotidacin MIC90
# Method: as §2, §3, §4, §5
# [4] = system: gram-negative and gram-positive anaerobes tested; assay: MIC by CLSI agar dilution, Example 6 Method 1; assay type: cell-based
# Method: as §2, §3, §4, §5
compound,measurement,setting,value
"O=c1ccc2ncc(=O)n3c2n1C[C@H]3CN1CCC(NCc2cc3c(cn2)OCCC3)CC1 [gepotidacin, (2R)-2-({4-[(3,4-dihydro-2H-pyrano[2,3-c]pyridin-6-ylmethyl)amino]-1-piperidinyl}methyl)-1,2-dihydro-3H,8H-2a,5,8a-triazaacenaphthylene-3,8-dione]",MIC,[1],≤ 8 µg/mL
same,MIC range,[2]; 3 isolates of methicillin-resistant S. saprophyticus,0.06 to 0.5 µg/mL
same,MIC range,[2]; 3 isolates of methicillin-susceptible S. saprophyticus,0.03 to 0.5 µg/mL
same,Mean Dilution Difference,[2]; 25% Urine (pH 7.09) vs CAMHB,0.00
same,Mean difference,[2]; 25% Urine (pH 7.09) vs CAMHB,0.00
same,N(%) ± 1 dilution,[2]; 25% Urine (pH 7.09) vs CAMHB,6 (100%)
same,N(%) ± 2 dilution,[2]; 25% Urine (pH 7.09) vs CAMHB,6 (100%)
same,Mean MIC,[2]; 25% Urine (pH 7.09),0.11 µg/mL
same,Mean Dilution Difference,[2]; 50% Urine (6.99) vs CAMHB,0.00
same,Mean difference,[2]; 50% Urine (6.99) vs CAMHB,0.00
same,N(%) ± 1 dilution,[2]; 50% Urine (6.99) vs CAMHB,6 (100%)
same,N(%) ± 2 dilution,[2]; 50% Urine (6.99) vs CAMHB,6 (100%)
same,Mean MIC,[2]; 50% Urine (6.99),0.11 µg/mL
same,Mean Dilution Difference,[2]; 100% Urine (pH 6.42) vs CAMHB,1.18
same,Mean difference,[2]; 100% Urine (pH 6.42) vs CAMHB,0.14
same,N(%) ± 1 dilution,[2]; 100% Urine (pH 6.42) vs CAMHB,4 (66.7%)
same,N(%) ± 2 dilution,[2]; 100% Urine (pH 6.42) vs CAMHB,6 (100%)
same,Mean MIC,[2]; 100% Urine (pH 6.42),0.24 µg/mL
same,Mean Dilution Difference,[2]; 100% Urine (pH 7.31) vs CAMHB,1.54
same,Mean difference,[2]; 100% Urine (pH 7.31) vs CAMHB,0.21
same,N(%) ± 1 dilution,[2]; 100% Urine (pH 7.31) vs CAMHB,3 (50%)
same,N(%) ± 2 dilution,[2]; 100% Urine (pH 7.31) vs CAMHB,4 (66.7%)
same,Mean MIC,[2]; 100% Urine (pH 7.31),0.31 µg/mL
same,Mean Dilution Difference,[2]; 100% Urine (pH 8.07) vs CAMHB,1.36
same,Mean difference,[2]; 100% Urine (pH 8.07) vs CAMHB,0.17
same,N(%) ± 1 dilution,[2]; 100% Urine (pH 8.07) vs CAMHB,3 (50%)
same,N(%) ± 2 dilution,[2]; 100% Urine (pH 8.07) vs CAMHB,5 (83.3%)
same,Mean MIC,[2]; 100% Urine (pH 8.07),0.28 µg/mL
same,Mean MIC,"[2]; CAMHB (ref. method, pH 7.2)",0.11 µg/mL
same,MIC,"[2]; read-out: MICs, heading: MICs, methicillin-susceptible and methicillin-resistant isolates tested (conclusion)",≤ 0.5 µg/mL
same,MIC,"[2]; at least one strain of methicillin-susceptible or methicillin-resistant S. saprophyticus, read-out: MIC",≤ 0.5 µg/mL
same,MIC fold lower than levofloxacin,[2]; each of the methicillin-resistant S. saprophyticus,4 fold
same,mean dilution differences (range),[2]; gepotidacin in 100% urine (conclusion),1.18-1.54
same,MIC fold lower than levofloxacin,[2]; methicillin-susceptible S. saprophyticus,8-32 fold
same,range of MICs,"E. coli; 5 isolates: ALL, 997577, ATCC25922, IR5, NCTC13441",1 to 4 µg/mL
same,Gepotidacin MIC,E. coli; Strain 997577,2 µg/mL
same,Gepotidacin MIC,E. coli; Strain ALL,4 µg/mL
same,Gepotidacin MIC,E. coli; Strain ATCC25922,1 µg/mL
same,Gepotidacin MIC,E. coli; Strain IR5,4 µg/mL
same,Gepotidacin MIC,E. coli; Strain NCTC13441,2 µg/mL
same,MIC90,"Bacteroides spp.; Bacteroides, 191 isolates, read-out: Gepotidacin MIC90",4 µg/mL
same,Gepotidacin MIC range,"Bacteroides spp.; ceftriaxone R, 100 isolates",≤0.015 to 32 µg/mL
same,Gepotidacin MIC range,"Bacteroides spp.; clindamycin R, 53 isolates",≤0.015 to 32 µg/mL
same,Gepotidacin MIC range,"Bacteroides spp.; moxifloxacin R, 32 isolates",0.25 to 32 µg/mL
same,MIC90,"Bifidobacterium spp.; Bifidobacterium, 26 isolates, read-out: Gepotidacin MIC90",0.5 µg/mL
same,Gepotidacin MIC range,"Bifidobacterium spp.; moxifloxacin R, 3 isolates",0.125 to 0.5 µg/mL
same,Gepotidacin MIC range,"Clostridium difficile; Clostridioides difficile ceftriaxone R, 48 isolates",0.5 to 4 µg/mL
same,Gepotidacin MIC range,"Clostridium difficile; Clostridioides difficile clindamycin R, 23 isolates",0.5 to 2 µg/mL
same,Gepotidacin MIC range,"Clostridium difficile; Clostridioides difficile imipenem R, 2 isolates",1 µg/mL
same,Gepotidacin MIC range,"Clostridium difficile; Clostridioides difficile moxifloxacin R, 37 isolates",0.5 to 8 µg/mL
same,MIC90,"Clostridium difficile; Clostridioides difficile, 100 isolates, read-out: Gepotidacin MIC90",2 µg/mL
same,MIC90,"Eggerthella lenta; Eggerthella lenta, 21 isolates, read-out: Gepotidacin MIC90",4 µg/mL
same,Gepotidacin MIC range,"Eggerthella lenta; ceftriaxone R, 19 isolates",0.06 to 32 µg/mL
same,Gepotidacin MIC range,"Eggerthella lenta; clindamycin R, 3 isolates",1 to 4 µg/mL
same,Gepotidacin MIC range,"Eggerthella lenta; moxifloxacin R, 6 isolates",1 to 32 µg/mL
same,MIC90,"Lactobacillus spp.; Lactobacillus, 91 isolates, read-out: Gepotidacin MIC90",1 µg/mL
same,Gepotidacin MIC range,"Lactobacillus spp.; clindamycin R, 3 isolates",0.03 to 1 µg/mL
same,Gepotidacin MIC range,"Lactobacillus spp.; imipenem R, 27 isolates",0.03 to 1 µg/mL
same,MIC90,"[3]; Peptostreptococcus anaerobius, 25 isolates, read-out: Gepotidacin MIC90",0.03 µg/mL
same,Gepotidacin MIC range,[3]; clindamycin R,≤0.015 to 0.03 µg/mL
same,Gepotidacin MIC range,[3]; moxifloxacin R,0.03 µg/mL
same,MIC90,Porphyromonas spp.,1 µg/mL
same,MIC,[4],≤ 2 µg/mL
same,MIC90,"[4]; 333 gram-negative and 203 gram-positive anaerobic isolates, per pathogen group",≤ 4 µg/mL
same,MIC,"[4]; Bacteroides caccae, read-out: MICs",≤ 4 µg/mL
